According to US20220356174A1, “PYRIDIN-2-ONE COMPOUNDS USEFUL AS SMARCA2 ANTAGONISTS” (Epizyme, Inc., priority 2018, published 2022):
Like-named read-outs stand apart in the source and are kept apart here.

What was measured:
FL-SMARCA4 = FL-SMARCA4 (Homo sapiens, UniProt P51532); test: SMARCA4 ATPase activity assay (ADP-Glo, chicken mononucleosome substrate)
[1] = biological target: T1, FL-SMARCA2 (full-length human SMARCA2 isoform 1) (Homo sapiens, UniProt P51531); test: SMARCA2 ATPase activity assay (ADP-Glo, chicken mononucleosome substrate); type: biochemical; settings: ATP 250 uM
T1 construct: FLAG tag (YKDDDDK) (C); made in house; host or cells: Sf21 insect cells (baculovirus, pFastBacI)
From the text: Molecular Biology: Full-length human SMARCA2 isoform 1 (P51531) transcript clone was amplified from a cDNA library incorporating an N-terminal HIS tag ([…]) fused directly to Ser2 of SMARCA2 and a C-FLAG tag (YKDDDDK) fused directly to Glu1590 of SMARCA2. The amplified gene was subcloned into pFastBacI (Life Technologies).
Protein Expression: Recombinant baculovirus were generated and protein over-expression was accomplished by infecting exponentially growing Sf21 insect cell culture at 1.24×10^6 cell/ml with an MOI of 0.1. Infections were carried out for 76 hours, harvested by centrifugation, and stored at −80° C. for purification.
Expressed full-length SMARCA2 was purified from cell paste by FLAG affinity chromatography followed by anion exchange chromatography. The protein was dialyzed into a storage buffer containing 25 mM HEPES, 300 mM KCl, 10% Glycerol, pH 7.9, 1 mM TCEP and 0.01% Tween-20. The purity of the protein was measured as 74% using micro-capillary based gel electrophoresis.

[2] = FL-SMARCA4 IC50, Table 3a.2, SMARCA4 5 nM, ATP 250 uM, mononucleosome 10 nM
[3] = Table 3a.1, SMARCA2 5 nM, mononucleosome 10 nM
[4] = FL-SMARCA4 IC50, Table 3b.2, SMARCA4 5 nM, ATP 250 uM, mononucleosome 10 nM
[5] = Table 3b.1, SMARCA2 5 nM, mononucleosome 10 nM
[6] = FL-SMARCA4 IC>50, Table 3c.2, ATPase assay, enzyme 5 nM, ATP 250 uM, chicken mononucleosome 10 nM, 30 min preincubation
[7] = Table 3c.1, ATPase assay, enzyme 5 nM, chicken mononucleosome 10 nM, 30 min preincubation
[8] = Table 3d.1, ATPase assay, enzyme 5 nM, chicken mononucleosome 10 nM, 30 min preincubation, read-out: FL-SMARCA2 IC>50
[9] = FL-SMARCA4 IC50, Table 3.2, ATPase assay, enzyme 5 nM, ATP 250 uM, chicken mononucleosome 10 nM, 30 min preincubation
[10] = Table 3.1, ATPase assay, enzyme 5 nM, chicken mononucleosome 10 nM, 30 min preincubation

FL-SMARCA4, sequence (P51532 whole entry, canonical isoform): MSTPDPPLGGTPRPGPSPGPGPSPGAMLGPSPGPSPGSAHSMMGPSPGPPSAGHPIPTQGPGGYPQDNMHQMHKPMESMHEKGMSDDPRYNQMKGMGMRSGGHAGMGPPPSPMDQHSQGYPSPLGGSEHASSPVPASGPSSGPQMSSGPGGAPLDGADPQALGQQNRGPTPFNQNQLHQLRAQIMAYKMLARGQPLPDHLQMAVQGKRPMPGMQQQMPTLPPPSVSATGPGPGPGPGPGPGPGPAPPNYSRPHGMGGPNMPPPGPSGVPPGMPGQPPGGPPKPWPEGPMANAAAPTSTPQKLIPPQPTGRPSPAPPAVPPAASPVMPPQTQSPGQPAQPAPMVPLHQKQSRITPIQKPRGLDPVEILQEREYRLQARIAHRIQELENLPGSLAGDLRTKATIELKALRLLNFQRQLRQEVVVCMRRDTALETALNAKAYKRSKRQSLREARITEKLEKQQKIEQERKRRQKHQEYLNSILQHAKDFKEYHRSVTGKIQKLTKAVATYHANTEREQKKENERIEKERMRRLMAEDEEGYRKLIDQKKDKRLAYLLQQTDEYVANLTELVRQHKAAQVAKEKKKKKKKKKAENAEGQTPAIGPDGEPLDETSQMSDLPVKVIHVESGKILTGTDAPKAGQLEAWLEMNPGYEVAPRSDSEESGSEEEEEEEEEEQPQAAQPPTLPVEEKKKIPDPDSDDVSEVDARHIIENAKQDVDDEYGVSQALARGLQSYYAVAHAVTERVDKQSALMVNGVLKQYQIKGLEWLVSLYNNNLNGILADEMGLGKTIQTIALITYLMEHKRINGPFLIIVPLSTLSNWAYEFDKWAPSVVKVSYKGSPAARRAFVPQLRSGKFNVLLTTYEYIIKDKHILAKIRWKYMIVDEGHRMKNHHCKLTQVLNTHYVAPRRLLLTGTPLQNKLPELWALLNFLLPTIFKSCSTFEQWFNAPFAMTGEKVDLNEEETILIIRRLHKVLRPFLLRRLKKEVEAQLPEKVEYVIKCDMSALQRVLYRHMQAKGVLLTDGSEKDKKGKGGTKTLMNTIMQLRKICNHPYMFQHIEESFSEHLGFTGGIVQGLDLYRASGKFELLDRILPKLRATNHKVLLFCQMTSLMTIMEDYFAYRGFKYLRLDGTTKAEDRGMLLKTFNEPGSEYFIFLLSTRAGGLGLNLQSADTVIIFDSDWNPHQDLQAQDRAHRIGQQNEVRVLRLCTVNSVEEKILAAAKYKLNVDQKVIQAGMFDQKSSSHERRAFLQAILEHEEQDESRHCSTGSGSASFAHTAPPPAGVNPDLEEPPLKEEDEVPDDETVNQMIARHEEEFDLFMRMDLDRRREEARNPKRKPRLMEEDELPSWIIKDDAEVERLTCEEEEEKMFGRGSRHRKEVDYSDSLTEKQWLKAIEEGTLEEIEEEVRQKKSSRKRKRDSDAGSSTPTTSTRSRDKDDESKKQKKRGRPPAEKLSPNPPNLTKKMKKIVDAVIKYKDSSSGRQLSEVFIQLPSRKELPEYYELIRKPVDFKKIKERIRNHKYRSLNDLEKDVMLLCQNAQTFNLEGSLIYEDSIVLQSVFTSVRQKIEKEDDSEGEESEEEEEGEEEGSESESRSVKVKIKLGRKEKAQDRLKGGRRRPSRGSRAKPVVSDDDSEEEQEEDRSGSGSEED
T1 sequence (P51531 with tags, fused parts or gaps): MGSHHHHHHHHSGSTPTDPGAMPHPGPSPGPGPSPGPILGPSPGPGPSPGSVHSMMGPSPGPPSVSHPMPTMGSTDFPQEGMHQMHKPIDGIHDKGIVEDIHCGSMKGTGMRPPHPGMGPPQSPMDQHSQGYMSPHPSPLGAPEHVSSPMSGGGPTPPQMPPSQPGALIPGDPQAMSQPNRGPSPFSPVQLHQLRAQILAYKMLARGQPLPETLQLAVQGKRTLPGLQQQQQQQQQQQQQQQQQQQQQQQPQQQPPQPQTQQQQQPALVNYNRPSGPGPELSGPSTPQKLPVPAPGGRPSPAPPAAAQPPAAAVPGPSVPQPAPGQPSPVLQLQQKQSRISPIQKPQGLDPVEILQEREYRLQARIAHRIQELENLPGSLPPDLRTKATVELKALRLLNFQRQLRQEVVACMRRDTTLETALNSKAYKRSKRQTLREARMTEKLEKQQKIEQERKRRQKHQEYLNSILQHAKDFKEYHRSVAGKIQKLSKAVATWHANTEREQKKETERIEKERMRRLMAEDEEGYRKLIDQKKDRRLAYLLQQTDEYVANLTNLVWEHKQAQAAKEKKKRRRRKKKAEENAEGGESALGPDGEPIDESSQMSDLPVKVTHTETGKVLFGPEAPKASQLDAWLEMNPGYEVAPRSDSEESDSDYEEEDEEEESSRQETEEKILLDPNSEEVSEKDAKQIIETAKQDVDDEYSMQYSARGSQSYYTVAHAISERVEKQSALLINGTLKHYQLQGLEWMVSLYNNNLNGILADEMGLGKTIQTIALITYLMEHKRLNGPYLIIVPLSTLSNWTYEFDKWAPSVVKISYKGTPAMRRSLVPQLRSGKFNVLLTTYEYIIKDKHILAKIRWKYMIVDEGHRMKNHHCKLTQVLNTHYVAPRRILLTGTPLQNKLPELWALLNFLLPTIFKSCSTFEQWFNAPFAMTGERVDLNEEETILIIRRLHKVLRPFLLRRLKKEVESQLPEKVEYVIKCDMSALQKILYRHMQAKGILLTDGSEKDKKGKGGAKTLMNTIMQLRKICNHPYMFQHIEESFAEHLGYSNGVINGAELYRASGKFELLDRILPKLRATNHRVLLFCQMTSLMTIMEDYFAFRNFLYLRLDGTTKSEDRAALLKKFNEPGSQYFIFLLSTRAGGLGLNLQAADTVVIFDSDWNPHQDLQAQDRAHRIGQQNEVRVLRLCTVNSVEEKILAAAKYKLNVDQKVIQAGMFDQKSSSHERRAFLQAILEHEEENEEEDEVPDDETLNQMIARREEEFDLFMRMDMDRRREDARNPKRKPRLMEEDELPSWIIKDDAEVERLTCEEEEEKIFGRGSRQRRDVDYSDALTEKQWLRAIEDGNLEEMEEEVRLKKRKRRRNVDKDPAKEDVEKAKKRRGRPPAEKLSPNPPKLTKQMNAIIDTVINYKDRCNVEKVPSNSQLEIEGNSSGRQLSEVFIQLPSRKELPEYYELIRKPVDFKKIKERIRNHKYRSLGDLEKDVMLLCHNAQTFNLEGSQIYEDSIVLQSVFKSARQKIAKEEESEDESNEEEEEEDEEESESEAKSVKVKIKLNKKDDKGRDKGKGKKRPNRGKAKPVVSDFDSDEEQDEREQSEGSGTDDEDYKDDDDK

Work on `CCn1cc(NC(=O)c2ccc(=O)n(-c3ccccc3F)n2)ccc1=O` [Compound 1a] yielded an IC50 (FL-SMARCA4; [2]) of over 50 µM and an IC50 [1, 3] of over 50 µM.
With `CC(=O)c1cc(C(=O)Nc2c[nH]c(=O)c(C)c2)ccc1C` [Compound 1b] the IC50 (FL-SMARCA4; [4]) was over 50 µM and the IC50 [1, 5] was over 50 µM.
Compound `O=C(Nc1cc(F)c(=O)n(CC(F)F)c1)c1nnc(Cl)o1` [Compound 1c] has an IC50 (FL-SMARCA4; [6]) of over 50 µM and an IC50 [1, 7] of 0.402 µM.
In the case of `CCn1cc(NC(=O)C(=O)c2ccc(Cl)s2)ccc1=O` [Compound 1d], the IC50 (FL-SMARCA4; FL-SMARCA4 IC50) is reported as over 50 µM and the IC50 [1, 8] is reported as over 50 µM.
`Cn1cc(NC(=O)c2coc(Br)c2)cc(Cl)c1=O` [Compound 2] gave an IC50 (FL-SMARCA4; [9]) of over 50 µM and an IC50 [1, 10] of 33.2 µM.
Work on `CC(C)COc1ncccc1C(=O)Nc1cc(Cl)c(=O)n(C)c1` [Compound 2a] yielded an IC50 (FL-SMARCA4; [2]) of over 50 µM and an IC50 [1, 3] of over 50 µM.
`Cc1c(Cl)cccc1C(=O)Nc1c[nH]c(=O)c(C)c1` [Compound 2b] showed an IC50 (FL-SMARCA4; [4]) of over 50 µM and an IC50 [1, 5] of over 50 µM.
In the case of `C[S+]([O-])c1cc(C(=O)Nc2cc(F)c(=O)n(CC(F)F)c2)sc1Cl` (centres unmarked) [Compound 2c], the IC50 (FL-SMARCA4; [6]) is reported as over 50 µM and the IC50 [1, 7] is reported as 24.6 µM.
Compound `Cc1cc(C)n(-c2ccc(C(=O)Nc3cn(C)c(=O)cc3C)cn2)n1` [Compound 2d] has an IC50 (FL-SMARCA4; FL-SMARCA4 IC50) of over 50 µM and an IC50 [1, 8] of over 50 µM.
For `CCn1cc(NC(=O)c2nc(-c3ccc(OC)cc3)oc2C)ccc1=O` [Compound 3], the IC50 (FL-SMARCA4; [9]) was over 50 µM and the IC50 [1, 10] was over 50 µM.
For `CCn1cc(NC(=O)[C@@H]2C[C@H](OC)CN2C)ccc1=O` [Compound 3a], the IC50 (FL-SMARCA4; [2]) was over 50 µM and the IC50 [1, 3] was over 50 µM.
Compound `CCn1cc(NC(=O)C2C(C)(C)C2(C)C)ccc1=O` [Compound 3b] has an IC50 (FL-SMARCA4; [4]) of over 50 µM and an IC50 [1, 5] of over 50 µM.
With `COCc1cc(NC(=O)c2cc(F)c(Cl)s2)cn(CC(F)F)c1=O` [Compound 3c] the IC50 (FL-SMARCA4; [6]) was over 50 µM and the IC50 [1, 7] was 40 µM.
With `Cn1cc(NC(=O)C(C)(C)Oc2ccc(C#N)cc2)cc(Cl)c1=O` [Compound 3d] the IC50 (FL-SMARCA4; FL-SMARCA4 IC50) was over 50 µM and the IC50 [1, 8] was over 50 µM.
Work on `Cc1cc(NC(=O)c2cnn(-c3cccc(Cl)c3)c2C)c[nH]c1=O` [Compound 4] yielded an IC50 (FL-SMARCA4; [9]) of over 50 µM and an IC50 [1, 10] of over 50 µM.
`COC1(C(=O)Nc2ccc(=O)n(Cc3ccccc3Cl)c2)CCNCC1` [Compound 4a] gave an IC50 (FL-SMARCA4; [2]) of over 50 µM and an IC50 [1, 3] of over 50 µM.
Compound `CCn1cc(NC(=O)c2ccc(Cl)c(Cl)c2)ccc1=O` [Compound 4b] has an IC50 (FL-SMARCA4; [4]) of over 50 µM and an IC50 [1, 5] of 42 µM.
Work on `O=C(Nc1cc(C#CCO)c(=O)n(CC(F)F)c1)c1cc(F)c(Cl)s1` [Compound 4c] yielded an IC50 (FL-SMARCA4; [6]) of 18.1 µM and an IC50 [1, 7] of 6.98 µM.
`Cc1cc(=O)n(C)cc1NC(=O)C1CCCN(Cc2ccccc2)C1` (centres unmarked) [Compound 4d] showed an IC50 (FL-SMARCA4; FL-SMARCA4 IC50) of over 50 µM and an IC50 [1, 8] of 32 µM.
In the case of `CCn1cc(NC(=O)c2cnc(-c3ccc4c(c3)CCO4)s2)ccc1=O` [Compound 5], the IC50 (FL-SMARCA4; [9]) is reported as over 50 µM and the IC50 [1, 10] is reported as over 50 µM.
For `CCn1cc(NC(=O)[C@H]2CCC(=O)N(C)[C@@H]2c2ccncc2)ccc1=O` [Compound 5a], the IC50 (FL-SMARCA4; [2]) was over 50 µM and the IC50 [1, 3] was over 50 µM.
Compound `CCn1cc(NC(=O)c2cc(Cl)cc(Cl)c2)ccc1=O` [Compound 5b] has an IC50 (FL-SMARCA4; [4]) of over 50 µM and an IC50 [1, 5] of over 50 µM.
`COc1cccc(-c2nc(C(=O)Nc3cn(C)c(=O)cc3C)cs2)c1OC` [Compound 5d] showed an IC50 (FL-SMARCA4; FL-SMARCA4 IC50) of over 50 µM and an IC50 [1, 8] of over 50 µM.
`CCn1cc(NC(=O)c2csc(-c3ccc(C)n3C)n2)ccc1=O` [Compound 6] showed an IC50 (FL-SMARCA4; [9]) of over 50 µM and an IC50 [1, 10] of over 50 µM.
Work on `O=C(Nc1ccc(=O)n(Cc2ccccc2Cl)c1)C1COCCN1` (centres unmarked) [Compound 6a] yielded an IC50 (FL-SMARCA4; [2]) of over 50 µM and an IC50 [1, 3] of over 50 µM.
`CCn1cc(NC(=O)c2cccc(Cl)c2)ccc1=O` [Compound 6b] showed an IC50 (FL-SMARCA4; [4]) of over 50 µM and an IC50 [1, 5] of over 50 µM.
Compound `O=C(Nc1cc(F)c(=O)n(CC(F)F)c1)c1cc(C#Cc2cn3ccccc3n2)c(Cl)s1` [Compound 6c] has an IC50 (FL-SMARCA4; [6]) of 0.679 µM and an IC50 [1, 7] of 0.901 µM.
`O=C(CNCC1CC1)Nc1ccc(=O)n(Cc2ccccc2Cl)c1` [Compound 6d] was tested, and the IC50 (FL-SMARCA4; FL-SMARCA4 IC50) was over 50 µM and the IC50 [1, 8] was 22.4 µM.
In the case of `Cc1nc(-c2cc(C(=O)Nc3ccc(=O)n(C)c3)n(C)c2)cs1` [Compound 7], the IC50 (FL-SMARCA4; [9]) is reported as over 50 µM and the IC50 [1, 10] is reported as over 50 µM.
`C[C@H]1OCC(=O)N(Cc2ccccc2)[C@@H]1C(=O)Nc1ccc(=O)n(C)c1` [Compound 7a] gave an IC50 (FL-SMARCA4; [2]) of over 50 µM and an IC50 [1, 3] of over 50 µM.
`CCn1cc(NC(=O)c2ccc(Cl)cc2)ccc1=O` [Compound 7b] was tested, and the IC50 (FL-SMARCA4; [4]) was over 50 µM and the IC50 [1, 5] was over 50 µM.
Work on `CN(C)CCCc1cc(NC(=O)c2cc(F)c(Cl)s2)cn(CC(F)F)c1=O` [Compound 7c] yielded an IC50 (FL-SMARCA4; [6]) of over 50 µM and an IC50 [1, 7] of over 50 µM.
With `Cc1cc(=O)n(C)cc1NC(=O)[C@@H]1CCCO[C@H]1c1cn[nH]c1` [Compound 7d] the IC50 (FL-SMARCA4; FL-SMARCA4 IC50) was over 50 µM and the IC50 [1, 8] was over 50 µM.
Work on `Cn1cc(NC(=O)c2cc(Cl)cs2)cc(Br)c1=O` [Compound 8] yielded an IC50 (FL-SMARCA4; [9]) of over 50 µM and an IC50 [1, 10] of over 50 µM.
